From US12427212B2, “Nectin-4 binding miniproteins, conjugates and uses thereof” (Aktis Oncology, Inc., priority 2023, dated 2025) come the findings set out here.

Like-named read-outs stand apart in the source and are kept apart here. Bridges are numbered along the chain shown (N, C = ends). [ ]: non-standard residue; d: D form. The star is where a group is joined. DOTA = O=C(O)CN1CCN(CC(=O)O)CCN(CC(=O)*)CCN(CC(=O)O)CC1; Biotin = O=C1N[C@H]2[C@H](CS[C@H]2CCCCC(=O)*)N1; Lys(Me3) = C[N+](C)(C)CCCC[C@H](N)C(=O)O; Cit = NC(=O)NCCC[C@H](N)C(=O)O; PEG4 = NCCOCCOCCOCCOCCC(=O)O

One data set concerns the target T1, Nectin-4 (Homo sapiens, UniProt Q96NY8).
T1 sequence (Q96NY8 32-510): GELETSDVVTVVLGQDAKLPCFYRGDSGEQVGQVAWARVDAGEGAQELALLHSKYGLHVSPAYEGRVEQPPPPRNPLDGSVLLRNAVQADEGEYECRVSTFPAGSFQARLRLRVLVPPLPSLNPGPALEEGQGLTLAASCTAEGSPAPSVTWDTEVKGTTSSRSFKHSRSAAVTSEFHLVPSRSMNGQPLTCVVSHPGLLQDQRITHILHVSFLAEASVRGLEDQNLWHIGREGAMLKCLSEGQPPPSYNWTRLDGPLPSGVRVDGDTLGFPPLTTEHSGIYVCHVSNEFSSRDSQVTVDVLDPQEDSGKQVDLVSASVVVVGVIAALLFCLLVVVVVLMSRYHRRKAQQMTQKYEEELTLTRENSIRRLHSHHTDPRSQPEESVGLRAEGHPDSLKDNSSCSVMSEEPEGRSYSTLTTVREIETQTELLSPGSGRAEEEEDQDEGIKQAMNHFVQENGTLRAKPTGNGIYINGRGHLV
The experiment in a line: DELFIA whole cell binding assay, equilibrium binding affinity (KD), Table 2B. As for the experimental part:
A whole cell binding assay was used to estimate the equilibrium binding affinity (KD) or binding inhibition constant (Ki) of miniprotein ligands to cells expressing a target of interest. Cells were dispensed into a 384-well plate and incubated at 37° C., in 5% CO2 overnight. The next day cells were gently washed once in assay buffer prior to addition of europium chelated ligand. For KD determination, a miniprotein conjugated with europium chelate (DOTA or DTPA) in the presence or absence of 100-fold excess un-conjugated ligand was incubated with cells over 12 different concentrations ranging from 100 times below and above expected KD values. For Ki determination, a single concentration (KD equivalent concentration) of europium-chelate miniprotein was added to each well followed immediately by the addition of unconjugated competing ligand over 12 different concentrations ranging from 100 times below and above expected Ki values as before. The plate was incubated for 1.5 h at room temperature to reach binding equilibrium. Cells were then washed three times at room temperature with 1×PBS followed by the addition of 2 M HCl and incubated for two h at 37° C. Following this step, 2 M NaOH and fluorescent inducer solution were added to each well and incubated for 30 minutes at room temperature according to the manufacturer's protocol (Perkin-ELMER DELFIA assay). Plates were read on an Envision plate reader and a curve-fitting model was applied to estimate KD and Ki values using GraphPad Prism software. Mean DELFIA K; values for exemplary miniproteins are recorded in TABLE 9A.

Data set [1] is described as follows: In vivo biodistribution of 111In-labeled miniproteins by SPECT/CT, HT-1376 xenograft. The following applies: female, athymic nude, mouse, in vivo. Set-up: species or system mouse. From the text:
HT-1376 is a human cell line that expresses Nectin-4.
Humane endpoints: All animals were euthanized following the final imaging time point and carcasses were discarded according to IACUC protocols.
Image Processing: Images were generated as SPECT/CT pairs with the SPECT reported in units of activity.
Image generation: After the preprocessing described in A, individual maximum intensity projections (MIPs) were created with VivoQuant software for each subject at each time point and scaled in percent injected dose per gram (% ID/g). The CT for each image was windowed from −500 to 4500 Hounsfield Units (HU). The SPECT was windowed at various ranges to highlight different regions of uptake. Images were then stitched together using Image Magick based python tools to create montages of subjects over time and time points over groups.

Setting [2] is: Table 2B, binding to Nectin-4, read-out: Binding Affinity (KD).

Broadly, the Kd is the concentration at which binding is half-saturated. The term tissue uptake denotes the share of the injected amount in each gram of the tissue. A lower tissue uptake goes with little accumulation.

At Nectin-4, “{Biotin-PEG4}-CEYDEEFFTALKRLRGGDICEYIQASFQYLPGLCIEEILDNLGCS-OH (disulfide 1-34, 20-44) [Compound C178]” returned a Kd of 1.4 nM.

“{Biotin-PEG4}-CEYDEEFFTALARLRGGDICYYIQAYFQYLPGLCIEEILDNLGCS-OH (disulfide 1-34, 20-44) [Compound C165]”: at Nectin-4, the Kd was 4.1 nM.

For the compound “{DOTA-PEG4}-CEYDEQFFTALSSLRGGDICYYIQEQFANVPGICIEEILDNLGCS-OH (disulfide 1-34, 20-44) [Compound C137]”, in data set [1], the tissue uptake at 4 h amounted to 78.8 %ID/g and the tissue uptake at 24 h was found to be 42.9 %ID/g.

“{Biotin-PEG4}-CEYDEEFFTALARLRGGDICEYIQAKFQYLPKLCIEEILDNLGCS-OH (disulfide 1-34, 20-44) [Compound C167]” showed a Kd on Nectin-4 of 1.2 nM.

In turn, “{Biotin-PEG4}-CEYDEEFFTALARLRGGDICQYIQAKFAYVPGLCIEEILDNLGCS-OH (disulfide 1-34, 20-44) [Compound C155]” had a Kd on Nectin-4 of 1.1 nM.

The compound “{Biotin-PEG4}-CEYDEAFFTALARLRGGDICQYIQAKFQYLPGLCIEEILDNLGCS-OH (disulfide 1-34, 20-44) [Compound C151]” yielded a Kd on Nectin-4 of 0.68 nM.

In the case of “Ac-CEYDEEFFLGLKRLRGGDICYYIKKKFKKVPDLCIEEILEKLGC-OH (disulfide 1-34, 20-44) [Compound C60]”, the Kd at Nectin-4 (setting [2]) was found to be 3.17 nM.

The compound “{Biotin-PEG4}-CDYDEEFFTALKRLRGGDICEYIQASFQYLPGLCIEEILDNLGCS-OH (disulfide 1-34, 20-44) [Compound C188]” registered a Kd at Nectin-4 of 1.6 nM.

“{Biotin-PEG4}-CEYDEEFFTALA[Cit]LRGGDICSYIQAKFQYLPGLCIEEILDNLGCS-OH (disulfide 1-34, 20-44) [Compound C175]” yielded a dissociation constant (Kd) on Nectin-4 of 2.3 nM.

Take “{Biotin-PEG4}-CEYDEEFFTALA[Cit]LRGGDICEYIQAKFQYLPGLCIEEILDNLGCS-OH (disulfide 1-34, 20-44) [Compound C171]”: the affinity at Nectin-4, expressed as Kd, was 2.2 nM.

In data set [1], `CC[C@H](C)[C@@H]1NC(=O)[C@H](Cc2ccc(O)cc2)NC(=O)[C@H](Cc2ccc(O)cc2)NC(=O)[C@@H]2CSSC[C@@H](C(=O)O)NC(=O)CNC(=O)[C@H](CC(C)C)NC(=O)[C@H](CC(N)=O)NC(=O)[C@H](CCC(=O)O)NC(=O)[C@H](CC(C)C)NC(=O)[C@H]([C@@H](C)CC)NC(=O)[C@H](CCC(=O)O)NC(=O)[C@H](CCC(=O)O)NC(=O)[C@H]([C@@H](C)CC)NC(=O)[C@H](CSSC[C@H](NC(C)=O)C(=O)N[C@@H](CCC(=O)O)C(=O)N[C@@H](Cc3ccc(O)cc3)C(=O)N[C@@H](CC(=O)O)C(=O)N[C@@H](CCC(=O)O)C(=O)N[C@@H](CCC(N)=O)C(=O)N[C@@H](Cc3ccccc3)C(=O)N[C@@H](Cc3ccccc3)C(=O)N[C@@H]([C@@H](C)O)C(=O)N[C@@H](C)C(=O)N[C@@H](CC(C)C)C(=O)N[C@@H](CCCCN)C(=O)N[C@@H](CCCNC(=N)N)C(=O)N[C@@H](CC(C)C)C(=O)N[C@@H](CCCNC(=N)N)C(=O)NCC(=O)NCC(=O)N[C@@H](CC(=O)O)C(=O)N[C@@H]([C@@H](C)CC)C(=O)N2)NC(=O)[C@H](CC(C)C)NC(=O)[C@H](CC(=O)O)NC(=O)[C@@H]2CCCN2C(=O)[C@H](CC(C)C)NC(=O)[C@H]([C@@H](C)O)NC(=O)[C@H](CC(N)=O)NC(=O)[C@H](Cc2ccccc2)NC(=O)[C@H](CCC(N)=O)NC(=O)[C@H](C)NC(=O)[C@H](CO)NC1=O` [Compound C100] displayed a tissue uptake at 4 h of 112 %ID/g and a tissue uptake at 24 h of 61.8 %ID/g.

“{Biotin-PEG4}-CEYDEEFFTALKRLRGGDICEYIQA[Lys(Me3)]FQYLPGLCIEEILDNLGCS-OH (disulfide 1-34, 20-44) [Compound C201]” returned a Kd at Nectin-4 of 0.68 nM.

In turn, “{Biotin-PEG4}-CEYDEEFFTALA[Cit]LRGDDICSYIQAKFQYLPGLCIEEILDNLGCS-OH (disulfide 1-34, 20-44) [Compound C172]” yielded a Kd at Nectin-4 of 1.8 nM.

“{Biotin-PEG4}-CEYDEEFFTALKRLRGGDICYYIQASFQYLPGECIEEILDNLGCS-OH (disulfide 1-34, 20-44) [Compound C177]” showed a dissociation constant Kd on Nectin-4 of 2 nM.

On to “{DOTA-PEG4}-CEYDEQFFTALARLRGGDICYYIQEQFATVPGLCIEEILDQLGCS-OH (disulfide 1-34, 20-44) [Compound C129]”, for which, in data set [1], the tissue uptake at 4 h worked out at 43.5 %ID/g and the tissue uptake at 24 h amounted to 19.9 %ID/g.

Consider “Ac-CEYDEEFFLGLKRLRGGDICYYIKKKFKKVPDLCIEEILDKLGC-OH (disulfide 1-34, 20-44) [Compound C34]”, for which the Kd at Nectin-4 (setting [2]) is 3.17 nM.

In data set [1], “{DOTA-PEG4}-CEYDEEFFTALKRLRGGDICYYIQKAFQYLPGLCIEEILDNLGCS-OH (disulfide 1-34, 20-44) [Compound C121]” registered a tissue uptake at 4 h of 100 %ID/g and a tissue uptake at 24 h of 60.4 %ID/g.

Consider “{Biotin-PEG4}-CEYDEQFFTALKRLRGADICDYIQASFQYLPGLCIEEILDNLGCS-OH (disulfide 1-34, 20-44) [Compound C194]”, for which the Kd on Nectin-4 was determined as 1.1 nM.

“{Biotin-PEG4}-CEYDEEFFTALKRLRGDDICYYIQASFQYLPGLCIEEILDNLGCS-OH (disulfide 1-34, 20-44) [Compound C180]”: the affinity at Nectin-4, expressed as Kd, was 2.7 nM.

Regarding “Ac-CEYDEKFFTGLKRLRGGDICYYIKKKFKKVPKLCIEEILDKLGC-OH (disulfide 1-34, 20-44) [Compound C70]”, the Kd at Nectin-4 (setting [2]) came out at 2.2 nM.

Turning to “Ac-CEYDEEFFAGLKRLRRGDICYYIKKKFDKVPDLCIEEILDKLGC-OH (disulfide 1-34, 20-44) [Compound C14]”, at Nectin-4 (setting [2]), the Kd was found to be 14.1 nM.

On Nectin-4, “{Biotin-PEG4}-CEYDEQFFTALKRLRGGDICDYIQASFQYLPGLCIEEILDNLGCS-OH (disulfide 1-34, 20-44) [Compound C196]” gave a Kd of 1.6 nM.

Take “{Biotin-PEG4}-CEYDEEFFTALKRLRGGDICYYIQAKFQYLPKLCIEEILDNLGCS-OH (disulfide 1-34, 20-44) [Compound C119]”: binding on Nectin-4 was characterised by a dissociation constant (Kd) of 0.95 nM.

The compound “{Biotin-PEG4}-CDYDEEFFTALKRLRGDDICSYIQASFQYLPGLCIEEILDNLGCS-OH (disulfide 1-34, 20-44) [Compound C192]” returned a Kd at Nectin-4 of 1.3 nM.

“{Biotin-PEG4}-CDYDEEFFTALA[Cit]LRGGDICEYIQAKFQYLPGLCIEEILDNLGCS-OH (disulfide 1-34, 20-44) [Compound C176]” gave a Kd at Nectin-4 of 1.3 nM.

In turn, “{Biotin-PEG4}-CEYDEEFFTALKRLRGDDICEYIQASFQYLPGLCIEEILDNLGCS-OH (disulfide 1-34, 20-44) [Compound C181]” displayed a Kd on Nectin-4 of 3 nM.

“Ac-CEYDEEFFKGLKRLRGGDICYYIKKKFKKVPKLCIEEILDKLGC-OH (disulfide 1-34, 20-44) [Compound C80]”: the Kd at Nectin-4 (setting [2]) is 2.7 nM.

Regarding “Ac-CEYDEEFFTALARLRGGDICYYIQAKFQYLPGLCIEEILDNLGCS-OH (disulfide 1-34, 20-44) [Compound C124]”, the dissociation constant (Kd) on Nectin-4 (setting [2]) stood at 1.1 nM.

“{Biotin-PEG4}-CEYDEQFFTALARLRGGDICEYIQAKFQYLPGLCIEEILDNLGCS-OH (disulfide 1-34, 20-44) [Compound C146]” registered a Kd at Nectin-4 of 0.54 nM.

Regarding “{DOTA-PEG4}-CEYDEEFFTALSRLRGGDICYYIQQAFQYLPGLCIEEILDNLGCS-OH (disulfide 1-34, 20-44) [Compound C133]”, in data set [1], the tissue uptake at 4 h was found to be 43.8 %ID/g and the tissue uptake at 24 h was determined as 20.9 %ID/g.

“Ac-CEYDEEFFLGLKRLRGGDICYYIKKKFKKVPELCIEEILKKLGC-OH (disulfide 1-34, 20-44) [Compound C67]”: the Kd on Nectin-4 (setting [2]) is 2.64 nM.
